{
  "source": "patent US20040170622A1",
  "about": "“Methods and compositions for modulating XBP-1 activity” (President and Fellows of Harvard College, priority 2002, published 2004)",
  "format_in_all_cases": "cell-based",
  "key": {"[1]": {"tested_on": "XBP-1u and XBP-1s proteins", "assay": "XBP-1u and XBP-1s protein levels in J558 cells (Western blot)", "description": "(A) BiP and CHOP induction was examined by northern blot analysis after treating NIH3T3 or J558 myeloma cells with either MG-132 (20 μM), Tm (10 μg/ml) or both. Cells were pretreated with MG-132 for 1 hr and then further treated with Tm for 4 hrs. Ethidium bromide staining of the gel is shown at the bottom. (B) Inhibition of caspase-12 processing by proteasome inhibitors. Processing of full-length caspase-12 was examined by Western blotting in J558 myeloma cells treated with thapsigargin (1 μM) or PIs (20 μM) during the indicated time periods. (C) Alteration in the ratio of XBP-1 protein species in J558 cells were treated with increasing amounts of MG-132 for 16 hrs. Cells undergoing apoptosis were counted by Annexin V staining. (D) Time course of the XBP-1s to XBP-1u shift. Cells were treated with MG-132 (1 μM) for the indicated times and XBP-1u and spliced protein levels and cell death determined. (E) Alteration in the ratio of XBP-1 species in the MM.1s human myeloma line. Cells were treated with PS-341 (8 nM) in a time course analysis and XBP-1 protein species quantified.\nCells were lysed in RIPA buffer (50 mM Tris pH 7.4, 150 mM NaCl, 1 mM EDTA, 1% Triton X-100, 1% sodium deoxycholate, 0.1% SDS) and lysates subjected to SDS-PAGE and transferred to Hybond P membrane (Amersham-Pharmacia, Piscataway, N.J.). […] HeLa cells were cotransfected with XBP-1u and His-tagged ubiquitin expression plasmids (pMT 107, D. Bohmann, EMBL, Germany) by using the Lipofectamine-2000 reagent (Invitrogen, Carlsbad, Calif.). […] Degradation rates of XBP-1u and XBP-1s proteins were determined by pulse labeling J558 cells with ^35S Met/Cys for 1 hr and chasing for the indicated times."}, "XBP-1": {"tested_on": "XBP-1", "assay": "XBP-1 dependent gene expression in dn-XBP / iXBP transduced J558 cells (Northern, Western blot)", "excerpt": "(A) Synergistic effect of Tm and MG-132 on apoptosis. Annexin V positive cells were counted after treating J558 cells for 18 hrs with suboptimal concentrations of Tm and MG-132 as indicated. (B) J558-iXBP cells were generated by retroviral transduction of J558 cells with the U6 promoter based XBP-1 RNAi vector. (C) XBP-1 dependent gene expression in J558 cells that express control GFP, dn-XBP or iXBP-1 treated with Tm. Generation of dn-XBP-1 J558 cells by infection with a retrovirus containing dn-XBP cDNA inserted into the GFP-RV vector (N. N. lwakoshi et al., Nature Immunology 4, 321-329 (2003)). ERdj4, p58^IPK, BiP and CHOP gene expression were examined by Northern blot analysis. (D) Increased apoptosis in iXBP-1 and dn-XBP-1 expressing J558 cells. Cells were treated with the indicated amounts of Tm for 48 hrs and dead cells counted after Annexin V staining.\nTotal RNA was prepared by using Trizol reagent, electrophoresed on 1.2% agarose, 6% formaldehyde gels and then transferred onto Genescreen Plus membrane, (NEN, Boston, Mass.). […] Probes for ERdj4 and p58^IPK were generated from cDNA excised from EST clones (ATCC, Manassas, Va.) using appropriate restriction enzymes (ERdj4, IMAGE: 1920927; p58^IPK, IMAGE:2646147). […]"}, "spliced XBP-1": {"tested_on": "spliced XBP-1", "assay": "Inhibition of transactivation function of spliced XBP-1, luciferase in NIH 3T3 cells", "settings": "NIH 3T3, 200 ng spliced XBP-1, 200 ng mutant", "description": "Versions of XBP-1 with various deletions of the C terminal transcription activating domain (e.g., consisting of the N terminal 225, 188, or 136 amino acids of the spliced form of XBP-1) that expressed high levels of protein by western analysis were created. The proteins were tested for their ability to inhibit the transactivation function of spliced XBP-1. Both the 188 and 136 N terminal mutants were extremely potent inhibitors (effective at a 1:1 ratio) of the spliced XBP-1. NIH 3T3 cells expressing XBP-1uc constructs were transfected with 200 ng of spliced XBP-1, yielding a relative luciferase activity of 44.5. 200 ng of XBP-N188 lowered the luciferase level to 1.8 and 200 ng of XBP-N136 lowered the luciferase activity to 2.2."}},
  "note": "Where a SMILES comes first, the peptide text is derived from it. The star is where a group is joined. Cbz = O=C(OCc1ccccc1)*",
  "data": [
    {"molecule": "CC(C)C[C@@H](C=O)NC(=O)[C@H](CC(C)C)NC(=O)[C@H](CC(C)C)NC(=O)OCc1ccccc1", "note": "[MG-132] (Cbz-Leu-Leu-Leu-aldehyde)", "values": [
      {"measurement": "XBP-1s protein level, time course", "setting": "[1]; J558, MG-132 1 μM", "value": "rapidly declined after 4 hours of treatment and was barely detectable by 16 hours"},
      {"measurement": "onset of XBP-1u increase", "setting": "[1]; J558, MG-132 1 μM", "value": "as early as one hour post treatment"},
      {"measurement": "time of XBP-1u peak", "setting": "[1]; J558, MG-132 1 μM", "value": 8, "unit": "h"},
      {"measurement": "XBP-1u accumulation and XBP-1s decrease", "setting": "[1]; J558 cells, 16 hrs", "value": "striking accumulation of XBP-1 u and a concomitant decrease in XBP-1s proteins"}
    ]},
    {"molecule": "dn-XBP: dominant negative XBP-1 containing the N-terminal 188 aa, lacking transactivation domain, retaining leucine zipper (protein) MVVVAAAPSAATAAPKVLLLSGQPASGGRALPLMVPGPRAAGSEASGTPQARKRQRLTHLSPEEKALRRKLKNRVAAQTARDRKKARMSELEQQVVDLEEENHKLQLENQLLREKTHGLVVENQELRTRLGMDTLDPDEVPEVEAKGSGVRLVAGSAESAAGAGPVVTSPEHLPMDSDTVASSDSESD", "values": [
      {"measurement": "induction of BiP and CHOP by Tm", "setting": "XBP-1", "value": "minimally affected"},
      {"measurement": "induction of ERdj4 and p58IPK by Tm", "setting": "XBP-1", "value": "greatly reduced induction of XBP-1-dependent UPR target genes, ERdj4 and p58^IPK"}
    ]},
    {"molecule": "XBP-1s: vector encoding only the spliced form of murine XBP-1, a protein of 371 aa (protein) MVVVAAAPSAATAAPKVLLLSGQPASGGRALPLMVPGPRAAGSEASGTPQARKRQRLTHLSPEEKALRRKLKNRVAAQTARDRKKARMSELEQQVVDLEEENHKLQLENQLLREKTHGLVVENQELRTRLGMDTLDPDEVPEVEAKGSGVRLVAGSAESAAGAGPVVTSPEHLPMDSDTVASSDSESDILLGILDKLDPVMFFKCPSPESASLEELPEVYPEGPSSLPASLSLSVGTSSAKLEAINELIRFDHVYTKPLVLEIPSETESQTNVVVKIEEAPLSSSEEDHPEFIVSVKKEPLEDDFIPELGISNLLSSSHCLRPPSCLLDAHSDCGYEGSPSPFSDMSSPLGTDHSWEDTFANELFPQLISV", "values": [
      {"measurement": "relative luciferase activity", "setting": "spliced XBP-1", "value": 44.5}
    ]}
  ]
}
